Measured values published in the NIST ThermoML archive (doi:10.1016/j.jct.2012.08.014).
Numbers after ± are expanded uncertainties.

Conditions: Liquid, Vibrating tube method

Question: For OCCO [1,2-ethanediol], which mass density (278.15 K, 100 kPa) is on record?
Answer: 1122.4 ± 2.4 kg/m3

Question: And the mass density (278.15 K, 1000 kPa)?
Answer: 1122.6 ± 2.4 kg/m3

Question: What about the mass density (278.15 K, 5000 kPa) of the same compound?
Answer: 1124.1 ± 2.4 kg/m3

Question: And the mass density (278.15 K, 10000 kPa)?
Answer: 1126 ± 2.4 kg/m3

Question: And the mass density (278.15 K, 15000 kPa)?
Answer: 1127.8 ± 2.4 kg/m3

Question: What about the mass density (278.15 K, 20000 kPa) of the same compound?
Answer: 1129.6 ± 2.4 kg/m3

Question: And the mass density (278.15 K, 25000 kPa)?
Answer: 1131.4 ± 2.4 kg/m3

Question: What about the mass density (278.15 K, 30000 kPa) of the same compound?
Answer: 1133.1 ± 2.4 kg/m3

Question: And the mass density (278.15 K, 35000 kPa)?
Answer: 1134.8 ± 2.4 kg/m3

Question: And the mass density (278.15 K, 40000 kPa)?
Answer: 1136.6 ± 2.4 kg/m3

Question: And the mass density (278.15 K, 45000 kPa)?
Answer: 1138.2 ± 2.4 kg/m3

Question: And the mass density (278.15 K, 50000 kPa)?
Answer: 1139.9 ± 2.4 kg/m3

Question: What about the mass density (278.15 K, 55000 kPa) of the same compound?
Answer: 1141.6 ± 2.4 kg/m3

Question: And the mass density (278.15 K, 60000 kPa)?
Answer: 1143.3 ± 2.4 kg/m3

Question: What about the mass density (288.15 K, 100 kPa) of the same compound?
Answer: 1115.8 ± 2.4 kg/m3

Question: What about the mass density (288.15 K, 1000 kPa) of the same compound?
Answer: 1116 ± 2.4 kg/m3

Question: And the mass density (288.15 K, 5000 kPa)?
Answer: 1117.6 ± 2.4 kg/m3

Question: And the mass density (288.15 K, 10000 kPa)?
Answer: 1119.5 ± 2.4 kg/m3

Question: What about the mass density (288.15 K, 15000 kPa) of the same compound?
Answer: 1121.5 ± 2.4 kg/m3

Question: What about the mass density (288.15 K, 20000 kPa) of the same compound?
Answer: 1123.3 ± 2.4 kg/m3

Question: What about the mass density (288.15 K, 25000 kPa) of the same compound?
Answer: 1125.2 ± 2.4 kg/m3

Question: And the mass density (288.15 K, 30000 kPa)?
Answer: 1127 ± 2.4 kg/m3

Question: And the mass density (288.15 K, 35000 kPa)?
Answer: 1128.8 ± 2.4 kg/m3

Question: What about the mass density (288.15 K, 40000 kPa) of the same compound?
Answer: 1130.6 ± 2.4 kg/m3

Question: And the mass density (288.15 K, 45000 kPa)?
Answer: 1132.3 ± 2.4 kg/m3

Question: What about the mass density (288.15 K, 50000 kPa) of the same compound?
Answer: 1134.1 ± 2.4 kg/m3

Question: What about the mass density (288.15 K, 55000 kPa) of the same compound?
Answer: 1135.7 ± 2.4 kg/m3

Question: What about the mass density (288.15 K, 60000 kPa) of the same compound?
Answer: 1137.4 ± 2.4 kg/m3

Question: And the mass density (298.15 K, 100 kPa)?
Answer: 1109 ± 2.4 kg/m3

Question: And the mass density (298.15 K, 1000 kPa)?
Answer: 1109.2 ± 2.4 kg/m3

Question: And the mass density (298.15 K, 5000 kPa)?
Answer: 1110.9 ± 2.4 kg/m3

Question: And the mass density (298.15 K, 10000 kPa)?
Answer: 1112.9 ± 2.4 kg/m3

Question: What about the mass density (298.15 K, 15000 kPa) of the same compound?
Answer: 1114.9 ± 2.4 kg/m3

Question: What about the mass density (298.15 K, 25000 kPa) of the same compound?
Answer: 1118.7 ± 2.4 kg/m3

Question: What about the mass density (298.15 K, 30000 kPa) of the same compound?
Answer: 1120.6 ± 2.4 kg/m3

Question: And the mass density (298.15 K, 35000 kPa)?
Answer: 1122.4 ± 2.4 kg/m3

Question: And the mass density (298.15 K, 40000 kPa)?
Answer: 1124.3 ± 2.4 kg/m3

Question: And the mass density (298.15 K, 45000 kPa)?
Answer: 1126.1 ± 2.4 kg/m3

Question: What about the mass density (298.15 K, 50000 kPa) of the same compound?
Answer: 1127.8 ± 2.4 kg/m3

Question: What about the mass density (298.15 K, 55000 kPa) of the same compound?
Answer: 1129.6 ± 2.4 kg/m3

Question: And the mass density (298.15 K, 60000 kPa)?
Answer: 1131.3 ± 2.4 kg/m3

Question: What about the mass density (308.15 K, 100 kPa) of the same compound?
Answer: 1102.2 ± 2.4 kg/m3

Question: And the mass density (308.15 K, 1000 kPa)?
Answer: 1102.4 ± 2.4 kg/m3

Question: What about the mass density (308.15 K, 5000 kPa) of the same compound?
Answer: 1104.1 ± 2.4 kg/m3

Question: And the mass density (308.15 K, 10000 kPa)?
Answer: 1106.1 ± 2.4 kg/m3

Question: What about the mass density (308.15 K, 15000 kPa) of the same compound?
Answer: 1108.2 ± 2.4 kg/m3

Question: What about the mass density (308.15 K, 25000 kPa) of the same compound?
Answer: 1112.1 ± 2.4 kg/m3

Question: What about the mass density (308.15 K, 30000 kPa) of the same compound?
Answer: 1114 ± 2.4 kg/m3

Question: And the mass density (308.15 K, 35000 kPa)?
Answer: 1115.9 ± 2.4 kg/m3

Question: And the mass density (308.15 K, 40000 kPa)?
Answer: 1117.7 ± 2.4 kg/m3

Question: And the mass density (308.15 K, 45000 kPa)?
Answer: 1119.6 ± 2.4 kg/m3

Question: And the mass density (308.15 K, 50000 kPa)?
Answer: 1121.4 ± 2.4 kg/m3

Question: What about the mass density (308.15 K, 55000 kPa) of the same compound?
Answer: 1123.2 ± 2.4 kg/m3

Question: And the mass density (308.15 K, 60000 kPa)?
Answer: 1125 ± 2.4 kg/m3

Question: And the mass density (318.15 K, 100 kPa)?
Answer: 1095.2 ± 2.4 kg/m3

Question: What about the mass density (318.15 K, 1000 kPa) of the same compound?
Answer: 1095.4 ± 2.4 kg/m3

Question: And the mass density (318.15 K, 5000 kPa)?
Answer: 1097.1 ± 2.4 kg/m3

Question: And the mass density (318.15 K, 10000 kPa)?
Answer: 1099.2 ± 2.4 kg/m3

Question: What about the mass density (318.15 K, 15000 kPa) of the same compound?
Answer: 1101.3 ± 2.4 kg/m3

Question: What about the mass density (318.15 K, 25000 kPa) of the same compound?
Answer: 1105.3 ± 2.4 kg/m3

Question: And the mass density (318.15 K, 30000 kPa)?
Answer: 1107.3 ± 2.4 kg/m3

Question: And the mass density (318.15 K, 35000 kPa)?
Answer: 1109.3 ± 2.4 kg/m3

Question: What about the mass density (318.15 K, 40000 kPa) of the same compound?
Answer: 1111.2 ± 2.4 kg/m3

Question: And the mass density (318.15 K, 45000 kPa)?
Answer: 1113.1 ± 2.4 kg/m3

Question: What about the mass density (318.15 K, 50000 kPa) of the same compound?
Answer: 1115 ± 2.4 kg/m3

Question: And the mass density (318.15 K, 60000 kPa)?
Answer: 1118.6 ± 2.4 kg/m3

Question: And the mass density (328.15 K, 100 kPa)?
Answer: 1088.2 ± 2.4 kg/m3

Question: And the mass density (328.15 K, 1000 kPa)?
Answer: 1088.3 ± 2.4 kg/m3

Question: What about the mass density (328.15 K, 5000 kPa) of the same compound?
Answer: 1090.2 ± 2.4 kg/m3

Question: And the mass density (328.15 K, 10000 kPa)?
Answer: 1092.3 ± 2.4 kg/m3

Question: What about the mass density (328.15 K, 15000 kPa) of the same compound?
Answer: 1094.4 ± 2.4 kg/m3

Question: What about the mass density (328.15 K, 25000 kPa) of the same compound?
Answer: 1098.6 ± 2.4 kg/m3

Question: What about the mass density (328.15 K, 30000 kPa) of the same compound?
Answer: 1100.6 ± 2.4 kg/m3

Question: What about the mass density (328.15 K, 40000 kPa) of the same compound?
Answer: 1104.6 ± 2.4 kg/m3

Question: And the mass density (328.15 K, 45000 kPa)?
Answer: 1106.5 ± 2.4 kg/m3

Question: What about the mass density (328.15 K, 50000 kPa) of the same compound?
Answer: 1108.4 ± 2.4 kg/m3

Question: What about the mass density (328.15 K, 60000 kPa) of the same compound?
Answer: 1112.1 ± 2.4 kg/m3

Question: What about the mass density (338.15 K, 100 kPa) of the same compound?
Answer: 1080.9 ± 2.4 kg/m3

Question: What about the mass density (338.15 K, 1000 kPa) of the same compound?
Answer: 1081.2 ± 2.4 kg/m3

Question: What about the mass density (338.15 K, 5000 kPa) of the same compound?
Answer: 1083.1 ± 2.4 kg/m3

Question: What about the mass density (338.15 K, 10000 kPa) of the same compound?
Answer: 1085.4 ± 2.4 kg/m3

Question: And the mass density (338.15 K, 15000 kPa)?
Answer: 1087.6 ± 2.4 kg/m3

Question: And the mass density (338.15 K, 20000 kPa)?
Answer: 1089.8 ± 2.4 kg/m3

Question: And the mass density (338.15 K, 25000 kPa)?
Answer: 1091.9 ± 2.4 kg/m3

Question: And the mass density (338.15 K, 30000 kPa)?
Answer: 1094 ± 2.4 kg/m3

Question: And the mass density (338.15 K, 40000 kPa)?
Answer: 1097.9 ± 2.4 kg/m3

Question: And the mass density (338.15 K, 45000 kPa)?
Answer: 1099.9 ± 2.4 kg/m3

Question: And the mass density (338.15 K, 50000 kPa)?
Answer: 1101.9 ± 2.4 kg/m3

Question: What about the mass density (338.15 K, 55000 kPa) of the same compound?
Answer: 1103.9 ± 2.4 kg/m3

Question: What about the mass density (338.15 K, 60000 kPa) of the same compound?
Answer: 1105.8 ± 2.4 kg/m3

Question: And the mass density (348.15 K, 100 kPa)?
Answer: 1073.6 ± 2.4 kg/m3

Question: And the mass density (348.15 K, 1000 kPa)?
Answer: 1073.9 ± 2.4 kg/m3

Question: And the mass density (348.15 K, 5000 kPa)?
Answer: 1075.8 ± 2.4 kg/m3

Question: And the mass density (348.15 K, 10000 kPa)?
Answer: 1078.1 ± 2.4 kg/m3

Question: What about the mass density (348.15 K, 15000 kPa) of the same compound?
Answer: 1080.4 ± 2.4 kg/m3

Question: What about the mass density (348.15 K, 20000 kPa) of the same compound?
Answer: 1082.7 ± 2.4 kg/m3

Question: What about the mass density (348.15 K, 25000 kPa) of the same compound?
Answer: 1084.9 ± 2.4 kg/m3

Question: And the mass density (348.15 K, 30000 kPa)?
Answer: 1087 ± 2.4 kg/m3

Question: What about the mass density (348.15 K, 40000 kPa) of the same compound?
Answer: 1091.3 ± 2.4 kg/m3

Question: And the mass density (348.15 K, 45000 kPa)?
Answer: 1093.4 ± 2.4 kg/m3

Question: What about the mass density (348.15 K, 50000 kPa) of the same compound?
Answer: 1095.3 ± 2.4 kg/m3

Question: And the mass density (348.15 K, 55000 kPa)?
Answer: 1097.3 ± 2.4 kg/m3

Question: And the mass density (348.15 K, 60000 kPa)?
Answer: 1099.4 ± 2.4 kg/m3

Question: What about the mass density (358.15 K, 100 kPa) of the same compound?
Answer: 1066.1 ± 2.4 kg/m3

Question: What about the mass density (358.15 K, 1000 kPa) of the same compound?
Answer: 1066.2 ± 2.4 kg/m3

Question: What about the mass density (358.15 K, 5000 kPa) of the same compound?
Answer: 1068.2 ± 2.4 kg/m3

Question: And the mass density (358.15 K, 10000 kPa)?
Answer: 1070.7 ± 2.4 kg/m3

Question: What about the mass density (358.15 K, 15000 kPa) of the same compound?
Answer: 1073.1 ± 2.4 kg/m3

Question: And the mass density (358.15 K, 20000 kPa)?
Answer: 1075.4 ± 2.4 kg/m3

Question: And the mass density (358.15 K, 25000 kPa)?
Answer: 1077.8 ± 2.4 kg/m3

Question: And the mass density (358.15 K, 30000 kPa)?
Answer: 1079.9 ± 2.4 kg/m3

Question: And the mass density (358.15 K, 35000 kPa)?
Answer: 1082.1 ± 2.4 kg/m3

Question: What about the mass density (358.15 K, 40000 kPa) of the same compound?
Answer: 1084.3 ± 2.4 kg/m3

Question: And the mass density (358.15 K, 45000 kPa)?
Answer: 1086.5 ± 2.4 kg/m3

Question: And the mass density (358.15 K, 55000 kPa)?
Answer: 1090.7 ± 2.4 kg/m3

Question: And the mass density (358.15 K, 60000 kPa)?
Answer: 1092.7 ± 2.4 kg/m3
